Structures can show the parent of a compound that is named as a salt.
These compounds were tested against T1, ACAT (Oryctolagus cuniculus, UniProt G1SFD9) (assay: ACAT enzyme inhibitory activity of rabbit intestinal mucosa). Details: rabbit intestinal mucosa microsome, [1-14C] oleoyl CoA, 37° C., pH 7.4.
T1 construct: from tissue; host or cells: domestic rabbit intestinal mucosa, microsome fraction (105,000×g precipitate)
T1 sequence (G1SFD9 1-524): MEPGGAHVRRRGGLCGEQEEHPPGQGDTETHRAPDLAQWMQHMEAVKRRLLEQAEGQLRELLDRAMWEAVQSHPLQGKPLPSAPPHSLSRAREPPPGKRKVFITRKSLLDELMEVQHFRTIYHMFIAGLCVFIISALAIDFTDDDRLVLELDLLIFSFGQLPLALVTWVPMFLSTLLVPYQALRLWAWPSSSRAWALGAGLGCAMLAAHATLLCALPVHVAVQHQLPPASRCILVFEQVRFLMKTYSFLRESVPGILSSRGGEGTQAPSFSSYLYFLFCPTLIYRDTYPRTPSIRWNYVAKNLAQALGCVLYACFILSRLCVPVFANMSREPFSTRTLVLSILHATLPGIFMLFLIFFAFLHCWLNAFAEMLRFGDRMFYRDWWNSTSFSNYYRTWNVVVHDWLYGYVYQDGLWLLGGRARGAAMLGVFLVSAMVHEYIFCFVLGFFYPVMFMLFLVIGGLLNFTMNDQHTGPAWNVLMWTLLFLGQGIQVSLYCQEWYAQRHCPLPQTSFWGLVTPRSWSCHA
Format: biochemical
Procedure: Measurement of ACAT enzyme inhibitory activity (measurement of ACAT enzyme inhibitory activity of rabbit intestinal mucosa)
Preparation of a domestic rabbit intestinal mucosa microsome and measurement of the ACAT enzyme activity were conducted by slightly modifying a method established by Salone and Field (see Biochemica et Biophysica, vol. 712, 557 (1982).
The supernatant was further centrifuged at 105,000×g and a temperature of 4° C. for one hour to provide a precipitate. The precipitate was resuspended in the buffer A to provide a microsome fraction.
A 1 %v/v dimethylsulfoxide solution of each specimen compound in a predetermined concentration was added to the buffer A containing 43 μM serum albumin and 0.5 mg/ml microsome fraction, and the mixture was heated at 37° C. for 5 min.
Then, 43 μM oleoyl CoA containing [1^-14 C] oleoyl CoA (3.7 kB) was added thereto, the mixture was heated at 37° C. for 10 rain, and chloroform/methanol (2/1) containing 10 mg/ml cholesteryl oleate was added thereto to terminate the reaction.
0.111 kB of [^3 H] cholesteryl oleate and 1N hydrochloric acid were added thereto, and the mixture was stirred. The cholesteryl oleate extracted into the chloroform layer was isolated by thin-layer chromatography, and the radioactivity was measured as the ACAT activity.
CCCCCCCCCCC1(C(=O)Nc2cccc3nc(-c4cccnc4)oc23)CCCC1 [Ex. 2, N-[2-(3-pyridyl)benzoxazol-7-yl]-1-decylcyclopentanecarboxamide] was tested, and the IC50 was 830 nM. For Cc1ccc2c(c1NC(=O)NCC1(c3ccccc3)CCCC1)OC(C)(C)C2 [Ex. 3], the IC50 was 340 nM. CCCCCCCCCCC(C)(C)C(=O)Nc1c(C)c([N+](=O)[O-])c(C)c2c1OC(C)(C)C2 [Ex. 6, N-(2,2,4,6-tetramethyl-5-nitro-2,3-dihydrobenzofuran-7-yl)-2,2-dimethyldodecaneamide] gave an IC50 of 19 nM. For Cc1cc(C)c(NC(=O)C(C)(C)CCCCCOc2ccc([N+](=O)[O-])cc2)c2c1CC(C)(C)O2 [Ex. 10, N-(2,2,4,6-tetramethyl-2,3-dihydrobenzofuran-7-yl)-[2,2-dimethyl-7-(4-nitrophenyloxy)]heptaneamide], the IC50 was 230 nM. Compound Cc1cc2nc(-c3ccccc3)oc2c(NC(=O)NCC2(c3ccccc3)CCCC2)c1C [Ex. 13] has an IC50 of 400 nM. With CCCCCCCCCCC1(C(=O)Nc2cccc3nc(-c4ccccc4)oc23)CCCC1 [Ex. 18] the IC50 was 500 nM. CCCCCCCCCCCCNC(=O)Nc1c(C)ccc2c1OC(C)(C)C2 [Ex. 23] was tested, and the IC50 was 220 nM. CCCCCCCCCCNc1ccc(C(=O)Nc2c(C)cc(C)c3c2OC(C)(C)C3)cc1 [Ex. 33] gave an IC50 of 110 nM. Cc1ccc2c(c1NC(=O)C(C)(C)CCCCOc1ccc(C(C)(C)C)cc1)OC(C)(C)C2 [Ex. 37] gave an IC50 of 340 nM. Cc1cc(C)c(NC(=O)C(C)(C)CCCCCCBr)c2c1CC(C)(C)O2 [Ex. 38] showed an IC50 of 180 nM. For CCCCCCCCC(C)(C)C(=O)Nc1c(C)cc(C)c2c1OC(C)(C)C2 [Ex. 39], the IC50 was 72 nM. For CCCc1ccc(CCCC(C)(C)C(=O)Nc2c(C)cc(C)c3c2OC(C)(C)C3)cc1 [Ex. 44], the IC50 was 66 nM. Compound Cc1cc(C)c(NC(=O)C(C)(C)CCCc2ccc(CC(C)C)cc2)c2c1CC(C)(C)O2 [Ex. 45] has an IC50 of 28 nM. Work on CCCCCCOc1ccc(CCCC(C)(C)C(=O)Nc2c(C)cc(C)c3c2OC(C)(C)C3)cc1 [Ex. 46] yielded an IC50 of 34 nM. Cc1cc(C)c(NC(=O)C(C)(C)CCCCOCCCC(C)C)c2c1CC(C)(C)O2 [Ex. 47] was tested, and the IC50 was 190 nM. For Cc1cc(C)c(NC(=O)C(C)(C)CCCCCCOCCCC(C)C)c2c1CC(C)(C)O2 [Ex. 48], the IC50 was 57 nM. Compound Cc1cc(C)c(NC(=O)C(C)(C)CCCCCCOCC(C)(C)C)c2c1CC(C)(C)O2 [Ex. 50] has an IC50 of 45 nM. In the case of Cc1cc(C)c(NC(=O)C(C)(C)CCCCCOCCc2ccccc2)c2c1CC(C)(C)O2 [Ex. 54], the IC50 is reported as 100 nM. With Cc1cc(C)c(NC(=O)C(C)(C)CCCCCOCCOC(C)C)c2c1CC(C)(C)O2 [Ex. 55] the IC50 was 170 nM. In the case of COCCCCCCC(C)(C)C(=O)Nc1c(C)cc(C)c2c1OC(C)(C)C2 [Ex. 56], the IC50 is reported as 330 nM. Compound Cc1cc(C)c(NC(=O)C(C)(C)CCCCOc2ccc(C(C)(C)C)cc2)c2c1CC(C)(C)O2 [Ex. 58] has an IC50 of 170 nM. Work on Cc1ccc(OCCCCCC(C)(C)C(=O)Nc2c(C)cc(C)c3c2OC(C)(C)C3)cc1 [Ex. 62] yielded an IC50 of 64 nM. Compound Cc1cc(C)c(NC(=O)C(C)(C)CCCCCOc2ccc(Cl)cc2Cl)c2c1CC(C)(C)O2 [Ex. 63] has an IC50 of 220 nM. With Cc1ccc(OCCCCCC(C)(C)C(=O)Nc2c(C)cc(C)c3c2OC(C)(C)C3)c(C)c1 [Ex. 64] the IC50 was 910 nM. In the case of Cc1cc(C)c(NC(=O)C(C)(C)CCCCCOc2ccc(C(C)C)cc2)c2c1CC(C)(C)O2 [Ex. 65], the IC50 is reported as 86 nM. For Cc1cc(C)c(NC(=O)C(C)(C)CCCCCOc2ccc(N)cc2)c2c1CC(C)(C)O2 [Ex. 66], the IC50 was 460 nM. Cc1cc(C)c(NC(=O)C(C)(C)CCCCCOc2ccc(N(C)C)cc2)c2c1CC(C)(C)O2 [Ex. 67] gave an IC50 of 190 nM. Work on Cc1cc(C)c(NC(=O)C(C)(C)CCCCCCOc2ccc(F)cc2)c2c1CC(C)(C)O2 [Ex. 70] yielded an IC50 of 110 nM. Work on Cc1cc(C)c(NC(=O)C(C)(C)CCCCCCOc2ccc(N(C)C)cc2)c2c1CC(C)(C)O2 [Ex. 71] yielded an IC50 of 130 nM. Cc1cc(C)c(NC(=O)C(C)(C)CCCCCCNCc2ccc(Cl)cc2)c2c1CC(C)(C)O2 [Ex. 73 (HCl salt)] was tested, and the IC50 was 340 nM. Compound Cc1cc(C)c(NC(=O)C(C)(C)CCCCCCN(C)Cc2ccccc2)c2c1CC(C)(C)O2 [Ex. 74 (HCl salt)] has an IC50 of 330 nM. Cc1cc(C)c(NC(=O)C(C)(C)CCCCCCN(C)Cc2ccc(Cl)cc2)c2c1CC(C)(C)O2 [Ex. 75] was tested, and the IC50 was 120 nM. Cc1cc(C)c(NC(=O)C(C)(C)CCCCN2CCN(Cc3ccccc3)CC2)c2c1CC(C)(C)O2 [Ex. 78] gave an IC50 of 330 nM. Work on Cc1cc(C)c(NC(=O)C(C)(C)CCCCCCN2CCN(Cc3ccccc3)CC2)c2c1CC(C)(C)O2 [Ex. 79] yielded an IC50 of 350 nM. In the case of CCCCCCCCCCOc1ccc(C(=O)C(C)(C)C(=O)Nc2c(C)cc(C)c3c2OC(C)(C)C3)cc1 [Ex. 80], the IC50 is reported as 40 nM. CCCCCCCCCCCCCCCC(=O)Nc1c(C)cc(C)c2c1OC(C)(C)C2 [Ex. 81] was tested, and the IC50 was 260 nM. CCCCCCCCCCCCCCCC(=O)Nc1c(C)c(Cl)c(C)c2c1OC(C)(C)C2 [Ex. 83] was tested, and the IC50 was 72 nM. With CCCCCCCCCCOc1ccc(C(=O)CC(=O)Nc2c(C)cc(C)c3c2OC(C)(C)C3)cc1 [Ex. 88, N-(2,2,4,6-tetramethyl-2,3-dihydrobenzofuran-7-yl)3-(4-decyloxyphenyl)-3-oxpropaneamide] the IC50 was 110 nM.

The compounds below were run on serum cholesterol (assay: percentage change of serum cholesterol in cholesterol-fed rats). Details: Rattus norvegicus, 72 h; 1 mg/kg oral, once a day for three days, cholesterol-enriched feed, vs control.
Format: in vivo, Male Wistar rats
Description: Measurement of percentage change of serum cholesterol
Male Wistar rats having a weight of 200 g were preliminarily bred for 7 days while they freely ingested a normal feed (CE-2 manufactured by CLEA Japan Inc.).
Thereafter, they were bred for 3 days while they freely ingested a feed enriched with cholesterol and fat (2% cholesterol, 1% cholic acid, 20% casein, 45% fine granulated sugar, 12% coconut oil, 4% KC flock, 1% mixed vitamin, 7% mixed mineral and 8% dried fish powder; a product of CLEA Japan Inc.). During the cholesterol loading period, the test compound of the present invention was orally administered to the above test animals at a dose of 0.1 to 10 mg per kg of the weight once a day for three days. On the other hand, the excipient alone was administered to the control animals.
After 8 hrs from the last administration, the test animals were fasted. 16 hr after the initiation of the fasting, these test animals were slaughtered. The serum cholesterol level was measured for each animal.
The results were compared with those of the control and are given as percentage serum cholesterol (%) in Table 3.
Percentage change of serum cholesterol (%)={(A-B)/B}×100
wherein A represents the total cholesterol level of serum in the group of rats to which the test compound was administered; and B represents the total cholesterol level of serum in the control group of rats.
In the case of CCCCCCCCCCC(C)(C)C(=O)Nc1c(C)cc(C)c2c1OC(C)(C)C2 [Ex. 5, N-(2,2,4,6-tetramethyl-2,3-dihydrobenzofuran-7-yl)-2,2-dimethyldodecaneamide], the change in vivo at 1 mg/kg is reported as -61%. For CCCCCCCCCCC(C)(C)C(=O)Nc1c(C)c(N(C)C)c(C)c2c1OC(C)(C)C2 [Ex. 8, N-(5-dimethylamino-2,2,4,6-tetramethyl-2,3-dihydrobenzofuran-7-yl)-2,2-dimethyldodecaneamide], the change in vivo at 1 mg/kg was -71%. With CCCOCCCCCCOc1ccc(C(=O)Nc2c(C)cc(C)c3c2OC(C)(C)C3)cc1 [Ex. 29] the change in vivo at 1 mg/kg was -23%. Compound Cc1cc(C)c(NC(=O)C(C)(C)CCCCCc2ccccc2)c2c1CC(C)(C)O2 [Ex. 42] has a change in vivo at 1 mg/kg of -44%. With Cc1cc(C)c(NC(=O)C(C)(C)CCCc2ccc(CC(C)C)cc2)c2c1CC(C)(C)O2 [Ex. 45] the change in vivo at 1 mg/kg was -58%. Cc1cc(C)c(NC(=O)C(C)(C)CCCCCCOCC(C)C)c2c1CC(C)(C)O2 [Ex. 49] was tested, and the change in vivo at 1 mg/kg was -50%. Cc1cc(C)c(NC(=O)C(C)(C)CCCCOc2ccc(Cl)cc2)c2c1CC(C)(C)O2 [Ex. 59] gave a change in vivo at 1 mg/kg of -43%. Cc1cc(C)c(NC(=O)C(C)(C)CCCCCOc2ccc(Cl)cc2)c2c1CC(C)(C)O2 [Ex. 61] gave a change in vivo at 1 mg/kg of -64%. Cc1ccc(OCCCCCC(C)(C)C(=O)Nc2c(C)cc(C)c3c2OC(C)(C)C3)cc1 [Ex. 62] was tested, and the change in vivo at 1 mg/kg was -18%. Work on Cc1cc(C)c(NC(=O)C(C)(C)CCCCCCOc2ccc(Cl)cc2)c2c1CC(C)(C)O2 [Ex. 68] yielded a change in vivo at 1 mg/kg of -75%. Compound Cc1cc(C)c(NC(=O)C(C)(C)CCCCCCOc2ccc(N(C)C)cc2)c2c1CC(C)(C)O2 [Ex. 71] has a change in vivo at 1 mg/kg of -49%.

Same assay, conditions: Rattus norvegicus, 72 h; 10 mg/kg oral, once a day for three days, cholesterol-enriched feed, vs control
With CCCCCCCCCCC1(C(=O)Nc2c(C)c(C)cc3nc(-c4ccccc4)oc23)CCCC1 [Ex. 20] the change in vivo at 10 mg/kg was -46%. Work on CCCCCCCCCCC1(C(=O)Nc2c(C)ccc3c2OC(C)(C)C3)CCCC1 [Ex. 36] yielded a change in vivo at 10 mg/kg of -52%. Cc1cc(C)c(NC(=O)C(C)(C)CCCCCCOCC(C)(C)C)c2c1CC(C)(C)O2 [Ex. 50] was tested, and the change in vivo at 10 mg/kg was -54%. Work on Cc1cc(C)c(NC(=O)C(C)(C)CCCCOCc2ccccc2)c2c1CC(C)(C)O2 [Ex. 53] yielded a change in vivo at 10 mg/kg of -50%. Compound Cc1cc(C)c(NC(=O)C(C)(C)CCCCOc2ccc(C(C)(C)C)cc2)c2c1CC(C)(C)O2 [Ex. 58] has a change in vivo at 10 mg/kg of -27%. With Cc1cc(C)c(NC(=O)C(C)(C)CCCCN2CCN(Cc3ccccc3)CC2)c2c1CC(C)(C)O2 [Ex. 78] the change in vivo at 10 mg/kg was -43%.

Source: US5496853A, “Benzoxa condensed ring compounds, process for producing the same and pharmaceutical composition comprising the same” (Teijin Limited, priority 1990, dated 1996)
